This is an account of results in patent publication US10391095B2, “DNA-PK inhibitors” (Vertex Pharmaceuticals Incorporated, priority 2012, dated 2019).

pKi: −log10 of the molar value.

The target of one test is DNA-PK (Homo sapiens, UniProt P78527). Kind of test: DNA-PK inhibition assay (radiometric, 33P-ATP). The test is classed as biochemical. Particulars: 100 μM ATP, competitive tight-binding fit. A digest of the protocol:
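Approx. 6 nM DNA-PK with 10 µg/mL sheared dsDNA, 0.8 mg/mL peptide substrate and 100 µM 33P-ATP in HEPES pH 7.5, 10 mM MgCl2; 45 min, phosphoric acid quench. Phosphopeptide captured on filter plates and counted by scintillation; Ki from a competitive tight-binding model fit.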
As usually defined, the pKi is −log10 of the Ki, conventionally taken in molar units. In turn, `CNC(=O)c1ccnc2c([C@H](C)CNc3cc(-c4cnc(C)nc4)ncn3)cccc12` [Compound 578, (S)—N-methyl-8-(1-((2′-methyl-[4,5′-bipyrimidin]-6-yl)amino)propan-2-yl)quinoline-4-carboxamide] had a pKi of more than 7.52. `CC(CNc1cc(-c2ccc(N3CCN(C)CC3)nc2)ncn1)c1ccc(F)cc1OC1CC1` (centres unmarked) [Compound 271] gave a pKi of more than 7.52. Still for that read-out and setting: under `COc1sccc1C(C)CNc1cc(-c2ccc(N3CCN(C)CC3)nc2)ncn1` (centres unmarked) [Compound 265] stands more than 7.52; under `CNC(=O)c1c(F)cnc2c([C@H](C)CNc3cc(-c4ccc(C5CC5)nc4)ncn3)cccc12` [Compound 857], more than 7.52; under `CNC(=O)c1c(F)cnc2c([C@H](C)CNc3cc(-c4cnc(OC)c(CO)c4)ncn3)cccc12` [Compound 884], more than 7.52. For the compound `Cc1ccc(-c2cc(NC[C@@H](C)c3cccc4c(CO)ccnc34)ncn2)cn1` [Compound 568], the negative-log Ki (pKi) was more than 7.52. Still for that read-out and setting: under `Cc1ccc(-c2cc(NCC(C)c3cncc4nccnc34)ncn2)cn1` (centres unmarked) [Compound 407] stands more than 7.52.

`C[C@H](CNc1cc(-c2ccc(NC3CC3)nc2)ncn1)c1ccnc2c1OCCO2` [Compound 465] gave a pKi of more than 7.52. As for `CNC(=O)c1ccc(C(C)CNc2cc(-c3cnc4c(cnn4CC#N)c3)ncn2)c(OC)c1` (centres unmarked) [Compound 441], the pKi was more than 7.52. `[2H]c1nc(C)nc([2H])c1-c1cc(NC[C@@H](C)c2cccc3c(C(=O)NC)ccnc23)ncn1` [Compound 844, (S)—N-methyl-8-(1-((2′-methyl-4′,6′-dideutero-[4,5′-bipyrimidin]-6-yl)amino)propan-2-yl)quinoline-4-carboxamide]: the pKi was more than 7.52. Compound `COC(=O)c1ccc(OC)c(C(C)CNc2cc(-c3ccc(C)nc3)ncn2)c1` (centres unmarked) [Compound 250] gave a negative logarithm of the Ki (pKi) of more than 7.52. Same read-out and setting: as for `CNC(=O)c1ccnc2c([C@H](C)CNc3cc(-c4ccc(NCCn5cccc5)nc4)ncn3)cccc12` [Compound 702], the figure is more than 7.52; as for `CNC(=O)c1ccnc2c([C@H](C)CNc3cc(-c4ccc(NCCN5CCCC5=O)nc4)ncn3)cccc12` [Compound 703], more than 7.52.

Turning to `Cc1ccc(-c2cc(NCC(C)c3ccnc4cccnc34)ncn2)cn1` (centres unmarked) [Compound 331], the pKi is more than 7.52.

On to `CNC(=O)c1ccnc2c([C@H](C)CNc3cc(-c4ccc(F)cc4)ncn3)cccc12` [Compound 684], for which the pKi was more than 7.52.

For `CNC(=O)c1c(F)cnc2c([C@H](C)CNc3cc(-c4ccc(OCC5CC5)nc4)ncn3)cccc12` [Compound 896], the negative logarithm of the Ki (pKi) is more than 7.52. As for `COc1ccccc1CCNc1cc(-c2ccc(N3CCN(C(C)=O)CC3)nc2)ncn1` [Compound 16], the pKi is more than 7.52. Compound `CNC(=O)c1ccc(C(C)CNc2cc(-c3cnc4c(cnn4C(C)(C)C(=O)O)c3)ncn2)c(OC)c1` (centres unmarked) [Compound 284] showed a negative-log Ki (pKi) of more than 7.52.

`COc1ccccc1[C@H](C)CNc1cc(-c2ccc(Nc3nc[nH]n3)nc2)ncn1` [Compound 198] had a pKi of more than 7.52. `Cc1ncc(-c2cc(NC[C@@H](C)c3cccc4c(=O)n(C)cnc34)ncn2)cn1` [Compound 697] had a pKi of more than 7.52. Consider `COc1cc(F)c(F)cc1C(C)CNc1cc(-c2ccc(C)nc2)ncn1` (centres unmarked) [Compound 117], for which the pKi was more than 7.52.

The next test concerns DNA-PK null SCID mouse cell line. The experiment in a line: Cell viability following irradiation (CellTiter-Glo). The test is classed as cell-based. The conditions noted are these: single agent or in combination with radiation. As for the experimental part: (§1) To evaluate the radiosensitizing effects of compounds of the invention in combination with ionizing radiation (IR), a broad panel of cell lines across multiple tumor types and genetic backgrounds were tested. Cells were incubated with DMSO or compound 578 for 30 minutes and then exposed to various doses of radiation (0, 0.5, 1, 2, 4, 6, 8, and 16 Gy). Cell viability was assessed at 6 days using CellTiter-Glo® (Promega, Inc).
For orientation: In ATP-based viability assays light output follows the ATP content of the culture.
In the case of `CNC(=O)c1ccnc2c([C@H](C)CNc3cc(-c4cnc(C)nc4)ncn3)cccc12` [Compound 578, (S)—N-methyl-8-(1-((2′-methyl-[4,5′-bipyrimidin]-6-yl)amino)propan-2-yl)quinoline-4-carboxamide], the “effect on cell viability” value is “minimal effect on cell viability”.

The next test deals with H2009. The description is as above. The test is classed as cell-based. The conditions noted are these: compound 2.1 μM + IR, 6 days, DMSO 7.6 Gy. The procedure:
as §1
Turning to `CNC(=O)c1ccnc2c([C@H](C)CNc3cc(-c4cnc(C)nc4)ncn3)cccc12` [Compound 578, (S)—N-methyl-8-(1-((2′-methyl-[4,5′-bipyrimidin]-6-yl)amino)propan-2-yl)quinoline-4-carboxamide], the “EC50 IR” value was 2.5 Gy.
